Laboratory results as given in patent US20100266191A1, “METHOD FOR QUANTIFYING AN UNDERLYING PROPERTY OF A MULTITUDE OF SAMPLES” (priority 2007, published 2010).

Test system: GFP-human Akt3 fusion protein
Experiment: Akt3/PKBγ Redistribution assay (inhibition of IGF-I-stimulated membrane translocation)
Assay type: cell-based
Conditions: dose response fit of the estimated process coordinate, two-parameter formula, FIG. 15; IGF-I as reference agonist; read-out: Wortmannin concentration causing 50% changes (a)
Protocol: The Akt3/PKBγ Redistribution® assay from BioImage (http://www.bioimage.com) monitors translocation of GFP-human Akt3 fusion protein from the cytoplasm to the plasma membrane. Insulin-like growth factor-I (IGF-I) is used as reference agonist, and compounds are assayed for their ability to inhibit IGF-I-stimulated membrane translocation of Akt3/PKBγ. In inhibited cells, fluorescence is quite evenly distributed in the cytoplasmic space. In activated cells, there are spots of high intensity on the membrane area. Exemplary images from negative and positive control samples are presented on FIG. 1. […] The measured profiles for a series of positive and negative control samples are presented on FIG. 10. […] The measured profiles aid us in deciding how many segments we create and where their borders are. […] On FIG. 12, mean intensities of the three segments are plotted as read out parameters from images of positive control samples (left) and negative control samples (right). […] It is a linear combination of original intensities determined from the condition given in Eq. 4. […]

For `COC[C@H]1OC(=O)c2coc3c2[C@@]1(C)C1=C(C3=O)[C@@H]2CCC(=O)[C@@]2(C)C[C@H]1OC(C)=O` [Wortmannin, wortmannin], which IC50 is on record?
The IC50 was 36.4 ± 3 nM.
